Data on 25 compounds can be found in ChEMBL document CHEMBL5046289, “Targeting the S2 Subsite Enables the Structure-Based Discovery of Novel Highly Selective Factor XIa Inhibitors” (J Med Chem, 2022).

For assay [1], the target named is T1, Coagulation factor XI (Homo sapiens, UniProt P03951). As to conditions: dose 50.0 nM, time 1.0 hrs.
The target in assay [2] is T1, Coagulation factor XI. The experiment in a line: Inhibition of coagulation factor XIa (unknown origin) assessed as chromogenic substrate hydrolysis using CS-21(66) as substrate incubated for 1 hr by spectrophotometer based microplate reader method.

T1 sequence (P03951 19-387 limits assumed): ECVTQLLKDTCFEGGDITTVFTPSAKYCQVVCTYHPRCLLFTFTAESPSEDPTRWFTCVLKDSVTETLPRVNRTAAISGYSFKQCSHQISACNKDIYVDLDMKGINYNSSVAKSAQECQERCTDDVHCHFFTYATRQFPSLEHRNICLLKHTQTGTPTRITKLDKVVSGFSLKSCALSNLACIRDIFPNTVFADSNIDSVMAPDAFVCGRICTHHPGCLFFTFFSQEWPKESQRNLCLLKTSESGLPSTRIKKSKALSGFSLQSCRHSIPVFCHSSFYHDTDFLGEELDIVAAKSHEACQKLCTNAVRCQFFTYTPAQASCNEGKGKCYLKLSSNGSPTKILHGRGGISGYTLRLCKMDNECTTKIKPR
T1 sequence (P03951 388-625 limits assumed): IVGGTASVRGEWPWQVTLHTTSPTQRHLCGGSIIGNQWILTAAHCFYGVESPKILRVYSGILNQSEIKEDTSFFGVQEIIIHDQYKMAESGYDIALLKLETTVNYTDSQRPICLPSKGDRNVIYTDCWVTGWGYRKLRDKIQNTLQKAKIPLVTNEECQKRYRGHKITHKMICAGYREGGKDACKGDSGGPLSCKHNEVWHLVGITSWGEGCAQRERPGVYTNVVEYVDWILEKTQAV

For orientation: inhibition means the share of the control response that was lost under treatment. Lower therefore signals a weak effect. As to `CN1CCN(C(=O)C[C@H](NC(=O)/C=C/c2cc(Cl)ccc2-n2cnnn2)C(=O)Nc2ccc(C(=O)O)cc2)CC1`, the inhibition at Coagulation factor XI [1] turned out to be 17.2%.

Turning to `O=C(CN(Cc1ccc(F)cc1)C(=O)/C=C/c1cc(Cl)ccc1-n1cnnn1)Nc1ccc(C(=O)O)cc1`, the inhibition at Coagulation factor XI [1] came to 7.2%.

`COc1ccc(CN(CC(=O)Nc2ccc(C(=O)O)cc2)C(=O)/C=C/c2cccc(Cl)c2)cc1`: the inhibition against Coagulation factor XI [1] is less than 5%.

For the compound `O=C(O)C[C@H](NC(=O)/C=C/c1cc(Cl)ccc1-n1cnnn1)C(=O)Nc1ccc(C(=O)O)cc1`, the inhibition on Coagulation factor XI [1] is 2.1%.

For the compound `CN(C)C1CCN(C(=O)CC[C@H](NC(=O)/C=C/c2cc(Cl)ccc2-n2cnnn2)C(=O)Nc2ccc(C(=O)O)cc2)CC1`, at Coagulation factor XI [1], the inhibition was 7.5%.

On to `O=C(/C=C/c1cc(Cl)ccc1-n1cnnn1)N[C@@H](CC(=O)N1CCC(O)CC1)C(=O)Nc1ccc(C(=O)O)cc1`, for which, at Coagulation factor XI [1], the inhibition came to 12.3%.

For the compound `O=C(/C=C/c1cc(Cl)ccc1-n1cnnn1)N[C@@H](CCC(=O)N1CCCCC1)C(=O)Nc1ccc(C(=O)O)cc1`, the inhibition against Coagulation factor XI [1] is 16.1%.

With `COc1ccc(CN(CC(=O)Nc2ccc(C(=O)O)cc2)C(=O)/C=C/c2cc(Cl)ccc2-n2cnnn2)cc1`, at Coagulation factor XI [1], the inhibition was found to be 8.9%.

Consider `Cc1ccc(CN2CCN(C(=O)CC[C@H](NC(=O)/C=C/c3cc(Cl)ccc3-n3cnnn3)C(=O)Nc3ccc(C(=O)O)cc3)CC2)cc1`, for which, on Coagulation factor XI [1], the inhibition turned out to be 19.4%.

By IC50 is commonly meant the concentration that inhibits the measured activity by half. On to `CC(C)N1CCN(C(=O)CC[C@H](NC(=O)/C=C/c2cc(Cl)ccc2-n2cnnn2)C(=O)Nc2ccc(C(=O)O)cc2)CC1`, for which the IC50 at Coagulation factor XI [2] was determined as 73.5 nM. Further, the inhibition against Coagulation factor XI [1] was 20.9%.

Consider `O=C(/C=C/c1cc(Cl)ccc1-n1cnnn1)N[C@@H](CCC(=O)N1CCN(Cc2cccc(Cl)c2)CC1)C(=O)Nc1ccc(C(=O)O)cc1`, for which, at Coagulation factor XI [1], the inhibition was determined as 3.8%.

`O=C(/C=C/c1cc(Cl)ccc1-n1cnnn1)N[C@@H](CCC(=O)N1CCC(O)CC1)C(=O)Nc1ccc(C(=O)O)cc1`: the inhibition at Coagulation factor XI [1] amounted to 20.9%.

Take `CCc1ccc(CN(CC(=O)Nc2ccc(C(=O)O)cc2)C(=O)/C=C/c2cc(Cl)ccc2-n2cnnn2)cc1`: the inhibition against Coagulation factor XI [1] was 3.6%.

With `CN1CCCN(C(=O)CC[C@H](NC(=O)/C=C/c2cc(Cl)ccc2-n2cnnn2)C(=O)Nc2ccc(C(=O)O)cc2)CC1`, at Coagulation factor XI [1], the inhibition was 30.1%.

In turn, `O=C(/C=C/c1cc(Cl)ccc1-n1cnnn1)N[C@@H](CCC(=O)N1CCS(=O)(=O)CC1)C(=O)Nc1ccc(C(=O)O)cc1` returned an inhibition against Coagulation factor XI [1] of 2.6%.

On Coagulation factor XI [1], `O=C(CN(Cc1ccccc1)C(=O)/C=C/c1cccc(Cl)c1)Nc1ccc(C(=O)O)cc1` registered an inhibition of 7.9%.

Regarding `CN1CCN(C(=O)CC[C@H](NC(=O)/C=C/c2cc(Cl)ccc2-n2cnnn2)C(=O)Nc2ccc(C(=O)O)cc2)CC1`, the IC50 on Coagulation factor XI [2] amounted to 737 nM. Further, on Coagulation factor XI [1], the inhibition came to 20.5%.

Turning to `Cc1ccc(CN(CC(=O)Nc2ccc(C(=O)O)cc2)C(=O)/C=C/c2cc(Cl)ccc2-n2cnnn2)cc1`, the inhibition at Coagulation factor XI [1] is less than 5%.

Consider `CC1CCN(C(=O)C[C@H](NC(=O)/C=C/c2cc(Cl)ccc2-n2cnnn2)C(=O)Nc2ccc(C(=O)O)cc2)CC1`, for which the inhibition against Coagulation factor XI [1] turned out to be 3.6%.

Compound `O=C(/C=C/c1cc(Cl)ccc1-n1cnnn1)N[C@@H](CC(=O)N1CCCCC1)C(=O)Nc1ccc(C(=O)O)cc1` yielded an inhibition on Coagulation factor XI [1] of 15.9%.

Regarding `CC1CCN(C(=O)CC[C@H](NC(=O)/C=C/c2cc(Cl)ccc2-n2cnnn2)C(=O)Nc2ccc(C(=O)O)cc2)CC1`, on Coagulation factor XI [1], the inhibition was 3.1%.

Compound `O=C(/C=C/c1cc(Cl)ccc1-n1cnnn1)NCC(=O)Nc1ccc(C(=O)O)cc1` had an inhibition against Coagulation factor XI [1] of less than 5%.

Take `O=C(CN(Cc1ccccc1)C(=O)/C=C/c1cc(Cl)ccc1-n1cnnn1)Nc1ccc(C(=O)O)cc1`: the inhibition against Coagulation factor XI [1] was 15.3%.

As for `O=C(O)CC[C@H](NC(=O)/C=C/c1cc(Cl)ccc1-n1cnnn1)C(=O)Nc1ccc(C(=O)O)cc1`, the inhibition at Coagulation factor XI [1] turned out to be 6.6%.

For the compound `CCN1CCN(C(=O)CC[C@H](NC(=O)/C=C/c2cc(Cl)ccc2-n2cnnn2)C(=O)Nc2ccc(C(=O)O)cc2)CC1`, the concentration for half-maximal inhibition (IC50) on Coagulation factor XI [2] stood at 89.4 nM. The inhibition on Coagulation factor XI [1] was 17.2%.
